Seven molecules from PMC6199744, “Development of Chemical Proteomics for the Folateome and Analysis of the Kinetoplastid Folateome” (ACS Infectious Diseases, 2018) can be followed below.

Each structure is given as a SMILES string. Like-named read-outs stand apart in the source and are kept apart here.

Format in all cases: binding
For test [1], the target named is T1, HeLa cell extract proteins (Homo sapiens, UniProt O75964).
T1 construct: endogenous in cells; host or cells: HeLa cell extract
T1 sequence (O75964 1-103): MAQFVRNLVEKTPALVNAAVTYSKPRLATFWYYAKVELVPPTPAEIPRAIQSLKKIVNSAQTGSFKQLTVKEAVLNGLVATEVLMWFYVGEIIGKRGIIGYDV

The target in test [2] is T2, HeLa cell extract proteins (Homo sapiens, UniProt P20618).
T2 construct: endogenous in cells; host or cells: HeLa cell extract
T2 sequence (P20618 29-241): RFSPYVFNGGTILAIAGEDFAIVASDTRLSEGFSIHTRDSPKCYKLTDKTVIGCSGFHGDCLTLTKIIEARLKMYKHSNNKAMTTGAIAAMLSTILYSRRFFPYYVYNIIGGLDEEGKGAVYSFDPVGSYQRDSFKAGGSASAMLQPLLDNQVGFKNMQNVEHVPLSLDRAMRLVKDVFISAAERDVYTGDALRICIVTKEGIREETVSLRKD

Test [3] deals with T3, HeLa cell extract proteins (Homo sapiens, UniProt P30086).
T3 construct: endogenous in cells; host or cells: HeLa cell extract

Test [4] deals with T4, HeLa cell extract proteins (Homo sapiens, UniProt Q15084).
T4 construct: endogenous in cells; host or cells: HeLa cell extract
T4 sequence (Q15084 20-440): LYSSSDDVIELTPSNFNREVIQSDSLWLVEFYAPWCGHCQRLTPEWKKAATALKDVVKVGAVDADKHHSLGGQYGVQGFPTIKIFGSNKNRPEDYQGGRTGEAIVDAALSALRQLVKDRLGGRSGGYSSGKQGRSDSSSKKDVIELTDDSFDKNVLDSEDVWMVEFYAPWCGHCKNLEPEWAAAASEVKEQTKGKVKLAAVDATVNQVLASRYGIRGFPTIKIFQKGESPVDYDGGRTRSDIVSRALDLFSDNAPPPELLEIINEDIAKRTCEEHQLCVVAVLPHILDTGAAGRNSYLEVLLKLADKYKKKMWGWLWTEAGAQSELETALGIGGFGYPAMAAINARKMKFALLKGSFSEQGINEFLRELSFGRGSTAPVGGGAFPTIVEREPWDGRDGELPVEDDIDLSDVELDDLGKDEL

For test [5], the target named is T5, HeLa cell extract proteins (Homo sapiens, UniProt Q15366).
T5 construct: endogenous in cells; host or cells: HeLa cell extract

The target of test [6] is T6, HeLa cell extract proteins (Homo sapiens, UniProt Q5H9R7).
T6 construct: endogenous in cells; host or cells: HeLa cell extract
T6 sequence (Q5H9R7 1-873): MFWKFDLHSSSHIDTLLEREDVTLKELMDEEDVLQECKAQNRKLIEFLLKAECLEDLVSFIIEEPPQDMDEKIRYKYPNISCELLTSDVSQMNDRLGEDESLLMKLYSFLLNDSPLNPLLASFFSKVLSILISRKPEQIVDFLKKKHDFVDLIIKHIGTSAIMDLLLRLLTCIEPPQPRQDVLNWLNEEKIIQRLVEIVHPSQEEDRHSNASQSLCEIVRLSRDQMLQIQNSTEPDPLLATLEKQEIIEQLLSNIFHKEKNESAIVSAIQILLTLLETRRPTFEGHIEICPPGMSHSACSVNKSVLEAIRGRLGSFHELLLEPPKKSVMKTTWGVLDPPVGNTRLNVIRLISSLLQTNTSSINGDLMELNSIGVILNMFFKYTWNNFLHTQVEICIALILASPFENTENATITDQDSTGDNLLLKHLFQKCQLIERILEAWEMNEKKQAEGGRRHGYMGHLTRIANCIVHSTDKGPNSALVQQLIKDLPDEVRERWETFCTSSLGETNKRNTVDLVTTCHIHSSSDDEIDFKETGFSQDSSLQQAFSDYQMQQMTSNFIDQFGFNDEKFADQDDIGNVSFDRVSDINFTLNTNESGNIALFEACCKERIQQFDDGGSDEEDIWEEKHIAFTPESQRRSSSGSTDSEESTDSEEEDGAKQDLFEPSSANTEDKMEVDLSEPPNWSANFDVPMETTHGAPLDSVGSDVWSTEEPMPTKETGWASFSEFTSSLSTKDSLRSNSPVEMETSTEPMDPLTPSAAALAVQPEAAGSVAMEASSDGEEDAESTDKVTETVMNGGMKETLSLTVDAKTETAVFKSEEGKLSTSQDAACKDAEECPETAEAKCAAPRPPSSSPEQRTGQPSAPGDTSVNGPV

For test [7], the target named is T7, HeLa cell extract proteins (Homo sapiens, UniProt Q92621).
T7 construct: endogenous in cells; host or cells: HeLa cell extract

Test [8] addresses T8, HeLa cell extract proteins (Homo sapiens, UniProt Q9HB07).
T8 construct: endogenous in cells; host or cells: HeLa cell extract
T8 sequence (Q9HB07 48-376): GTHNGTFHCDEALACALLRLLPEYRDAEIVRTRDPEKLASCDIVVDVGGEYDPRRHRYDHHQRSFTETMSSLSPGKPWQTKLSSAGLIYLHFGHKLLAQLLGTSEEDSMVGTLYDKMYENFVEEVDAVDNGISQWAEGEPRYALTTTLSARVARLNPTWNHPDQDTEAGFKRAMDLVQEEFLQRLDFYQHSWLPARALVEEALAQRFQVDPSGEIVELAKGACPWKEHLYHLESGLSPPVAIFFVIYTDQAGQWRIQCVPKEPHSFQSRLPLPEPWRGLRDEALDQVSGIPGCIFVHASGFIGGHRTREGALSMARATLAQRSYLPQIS

The target in test [9] is T9, HeLa cell extract proteins (Homo sapiens, UniProt Q9NX63).
T9 construct: endogenous in cells; host or cells: HeLa cell extract
T9 sequence (Q9NX63 1-227): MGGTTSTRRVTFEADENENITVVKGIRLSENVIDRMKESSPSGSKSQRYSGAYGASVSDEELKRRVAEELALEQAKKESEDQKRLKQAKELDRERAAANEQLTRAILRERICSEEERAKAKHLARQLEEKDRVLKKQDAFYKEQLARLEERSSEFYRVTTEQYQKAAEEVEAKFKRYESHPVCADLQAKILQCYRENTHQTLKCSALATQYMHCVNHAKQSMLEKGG

Where [10] appears, read: HeLa, captured protein C12ORF10.
Where [11] appears, read: captured protein C12ORF10, HeLa.

T5 sequence (Q15366 whole entry): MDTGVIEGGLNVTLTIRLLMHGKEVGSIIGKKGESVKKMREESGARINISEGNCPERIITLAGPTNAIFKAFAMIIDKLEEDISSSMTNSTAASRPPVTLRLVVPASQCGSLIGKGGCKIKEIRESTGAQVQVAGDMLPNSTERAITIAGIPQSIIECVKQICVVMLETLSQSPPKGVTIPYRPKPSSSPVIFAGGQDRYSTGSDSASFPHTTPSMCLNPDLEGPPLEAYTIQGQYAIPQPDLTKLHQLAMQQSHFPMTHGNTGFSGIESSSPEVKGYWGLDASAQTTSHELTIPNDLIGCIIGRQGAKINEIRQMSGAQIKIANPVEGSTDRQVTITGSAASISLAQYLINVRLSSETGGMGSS
T3 sequence (P30086 whole entry): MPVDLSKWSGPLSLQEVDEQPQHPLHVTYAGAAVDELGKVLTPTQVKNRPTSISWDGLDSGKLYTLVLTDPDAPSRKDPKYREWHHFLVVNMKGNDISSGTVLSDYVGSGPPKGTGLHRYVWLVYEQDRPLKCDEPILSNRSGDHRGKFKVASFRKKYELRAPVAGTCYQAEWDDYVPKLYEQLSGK
T7 sequence (Q92621 whole entry): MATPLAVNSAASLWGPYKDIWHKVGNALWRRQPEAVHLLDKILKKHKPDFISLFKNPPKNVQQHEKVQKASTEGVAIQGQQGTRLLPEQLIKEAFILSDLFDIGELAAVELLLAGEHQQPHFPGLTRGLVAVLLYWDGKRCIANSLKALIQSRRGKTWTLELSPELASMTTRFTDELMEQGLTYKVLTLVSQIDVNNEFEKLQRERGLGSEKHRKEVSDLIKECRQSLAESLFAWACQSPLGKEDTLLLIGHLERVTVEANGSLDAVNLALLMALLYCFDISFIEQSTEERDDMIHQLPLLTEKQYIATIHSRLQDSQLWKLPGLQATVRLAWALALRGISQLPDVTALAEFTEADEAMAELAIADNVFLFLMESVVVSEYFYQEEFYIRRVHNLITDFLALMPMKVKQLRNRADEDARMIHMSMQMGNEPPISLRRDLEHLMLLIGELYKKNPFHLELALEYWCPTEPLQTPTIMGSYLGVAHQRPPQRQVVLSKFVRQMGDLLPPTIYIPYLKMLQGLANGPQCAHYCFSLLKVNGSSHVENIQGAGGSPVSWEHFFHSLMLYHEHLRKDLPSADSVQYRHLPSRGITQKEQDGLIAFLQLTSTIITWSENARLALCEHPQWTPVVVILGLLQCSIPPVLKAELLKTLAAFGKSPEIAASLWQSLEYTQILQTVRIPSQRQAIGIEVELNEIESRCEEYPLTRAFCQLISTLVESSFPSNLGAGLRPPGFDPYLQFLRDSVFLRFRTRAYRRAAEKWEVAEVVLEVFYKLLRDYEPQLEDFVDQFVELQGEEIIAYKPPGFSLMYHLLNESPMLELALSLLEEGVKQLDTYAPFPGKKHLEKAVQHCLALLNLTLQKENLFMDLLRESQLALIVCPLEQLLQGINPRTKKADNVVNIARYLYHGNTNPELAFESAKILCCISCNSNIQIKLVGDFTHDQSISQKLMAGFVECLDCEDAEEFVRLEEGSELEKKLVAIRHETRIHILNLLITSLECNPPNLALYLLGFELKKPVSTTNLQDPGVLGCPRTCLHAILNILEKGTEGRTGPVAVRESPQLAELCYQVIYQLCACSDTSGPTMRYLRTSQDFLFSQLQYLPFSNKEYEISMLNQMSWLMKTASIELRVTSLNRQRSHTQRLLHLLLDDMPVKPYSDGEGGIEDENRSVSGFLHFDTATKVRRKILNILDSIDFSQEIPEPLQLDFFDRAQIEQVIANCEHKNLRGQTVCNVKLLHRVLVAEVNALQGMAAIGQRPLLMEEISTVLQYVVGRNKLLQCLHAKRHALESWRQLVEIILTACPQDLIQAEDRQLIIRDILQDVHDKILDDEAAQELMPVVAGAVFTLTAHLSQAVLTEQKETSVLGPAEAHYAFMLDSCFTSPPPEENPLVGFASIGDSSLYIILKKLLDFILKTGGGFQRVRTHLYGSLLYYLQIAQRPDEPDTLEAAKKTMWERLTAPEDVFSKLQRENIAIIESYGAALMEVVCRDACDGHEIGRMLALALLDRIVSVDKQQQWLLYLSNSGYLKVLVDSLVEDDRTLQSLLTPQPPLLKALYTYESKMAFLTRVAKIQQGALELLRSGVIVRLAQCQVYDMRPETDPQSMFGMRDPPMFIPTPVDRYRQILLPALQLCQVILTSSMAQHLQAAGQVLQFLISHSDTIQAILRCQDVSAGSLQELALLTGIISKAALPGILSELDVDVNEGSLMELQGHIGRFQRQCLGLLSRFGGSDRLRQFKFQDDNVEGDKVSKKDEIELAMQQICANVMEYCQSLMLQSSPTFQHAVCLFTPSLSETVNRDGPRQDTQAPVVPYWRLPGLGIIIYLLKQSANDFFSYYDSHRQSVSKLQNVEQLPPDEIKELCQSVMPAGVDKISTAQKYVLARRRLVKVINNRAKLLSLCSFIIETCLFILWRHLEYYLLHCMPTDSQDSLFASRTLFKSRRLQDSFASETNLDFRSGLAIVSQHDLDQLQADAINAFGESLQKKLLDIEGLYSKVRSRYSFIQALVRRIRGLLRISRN

`Nc1nc2c(c(=O)[nH]1)N(C=O)C(CNc1ccc(C(=O)N[C@@H](CCC(=O)O)C(=O)O)cc1)CN2` (stereo partly drawn) [LEU, leucovorin]: the “fold changes relative to vehicle control” value is recorded as 1.07 in test [1] (HeLa, protein ATP5L); 0.96 in [2] (HeLa, protein PSMB1); 0.89 in [3] (HeLa, protein PEBP1); 1.03 in [4] (HeLa, protein PDIA6); 0.85 in test [5] (protein PCBP2, HeLa); 0.94 in test [6] (HeLa, protein SAPS3). The “fold changes relative to vehicle control” value in [7] (HeLa, captured protein NUP205) is reported as 1.03; in [8] (setting [10]), 1.08; in test [9] (HeLa, protein CHCHD3) it was 0.92.
`Nc1nc2[nH]cc(CCc3ccc(C(=O)N[C@@H](CCC(=O)O)C(=O)O)cc3)c2c(=O)[nH]1` [PTX, pemetrexed]: the “fold changes relative to vehicle control” value in test [1] was determined as 1.32; in test [2], 0.78; in test [3], 1.14; in [4], 1.12; in [5], 1.03; in [6], 0.94. For the same molecule, the “fold changes relative to vehicle control” value in [7] was found to be 1.09; in test [8] it was 0.33; in test [9], 0.98.
`CCCCCCOc1ccc(Cc2cnc(N)nc2N)cc1` [compound 1]: the “fold changes relative to vehicle control” value was determined as 1.2 in test [1] (protein ATP5L, HeLa); 1.05 in test [2] (protein PSMB1, HeLa); 1.23 in test [3] (protein PEBP1, HeLa); 1.09 in test [4] (protein PDIA6, HeLa); 0.96 in test [5] (protein PCBP2, HeLa); 0.96 in test [6] (HeLa, protein SAPS3). Besides, the “fold changes relative to vehicle control” value was determined as 1.03 in test [7] (captured protein NUP205, HeLa); 1.05 in [8] (setting [11]); 0.93 in [9] (captured protein CHCHD3, HeLa).
Take `CCCCCCOc1cccc(Cc2cnc(N)nc2N)c1` [compound 2]: the “fold changes relative to vehicle control” value is 0.95 in test [1] (protein ATP5L, HeLa); 1.28 in test [2] (protein PSMB1, HeLa); 1.9 in test [3] (protein PEBP1, HeLa); 1.75 in [4] (protein PDIA6, HeLa); 1.28 in test [5] (protein PCBP2, HeLa); 1.09 in [6] (HeLa, protein SAPS3). Also, the “fold changes relative to vehicle control” value in test [7] (captured protein NUP205, HeLa) is given as 1.1; in test [8] (setting [11]) it was 1.06; in test [9] (captured protein CHCHD3, HeLa), 1.08.
Regarding `Nc1nc2cccc(-c3ccccc3)c2n1Cc1ccc(Cl)c(Cl)c1` [compound 3], the “fold changes relative to vehicle control” value in test [1] (protein ATP5L, HeLa) is reported as 0.98; in [2] (protein PSMB1, HeLa) it was 0.92; in test [3] (protein PEBP1, HeLa) it was 1.08; in test [4] (protein PDIA6, HeLa) it was 0.89; in test [5] (protein PCBP2, HeLa), 0.91; in test [6] (HeLa, protein SAPS3), 1.11. The “fold changes relative to vehicle control” value was 1.18 in [7] (captured protein NUP205, HeLa); 1.04 in [8] (setting [11]); 1.02 in test [9] (captured protein CHCHD3, HeLa).
In the case of `NCCOCCOCC(=O)Nc1nc2ncc(CNc3ccc(C(=O)NC(CCC(=O)O)C(=O)O)cc3)nc2c(=O)[nH]1` (stereo not drawn) [compound 6], the “fold changes relative to vehicle control” value in test [1] (HeLa, protein ATP5L) was determined as 0.98; in [2] (HeLa, protein PSMB1) it was 0.94; in test [3] (HeLa, protein PEBP1), 1.42; in [4] (HeLa, protein PDIA6), 1.35; in test [5] (protein PCBP2, HeLa), 1.04; in test [6] (HeLa, protein SAPS3), 0.88. For the same molecule, the “fold changes relative to vehicle control” value came out at 1.16 in test [7] (HeLa, captured protein NUP205); 0.78 in [8] (setting [10]); 1 in [9] (HeLa, protein CHCHD3).
For `NCCCNc1ccc(C(=O)NC(CCC(=O)O)C(=O)O)cc1` (stereo not drawn) [compound 7], the “fold changes relative to vehicle control” value in test [1] (HeLa, protein ATP5L) is 0.97; in test [2] (HeLa, protein PSMB1) it was 0.86; in [3] (HeLa, protein PEBP1), 1.07; in [4] (HeLa, protein PDIA6), 1; in [5] (protein PCBP2, HeLa), 0.96; in test [6] (HeLa, protein SAPS3), 0.93. Besides, the “fold changes relative to vehicle control” value in test [7] (HeLa, captured protein NUP205) is listed as 1.16; in test [8] (setting [10]), 1.12; in test [9] (HeLa, protein CHCHD3), 0.99.
